In US8143263B2, “Therapeutic agents” (Astrazeneca AB, priority 2008, dated 2012):

What follows are molecules tested against T1, recombinant human pancreatic GLK (Homo sapiens, UniProt P35557) (assay: biochemical).
T1 sequence (P35557 1-465): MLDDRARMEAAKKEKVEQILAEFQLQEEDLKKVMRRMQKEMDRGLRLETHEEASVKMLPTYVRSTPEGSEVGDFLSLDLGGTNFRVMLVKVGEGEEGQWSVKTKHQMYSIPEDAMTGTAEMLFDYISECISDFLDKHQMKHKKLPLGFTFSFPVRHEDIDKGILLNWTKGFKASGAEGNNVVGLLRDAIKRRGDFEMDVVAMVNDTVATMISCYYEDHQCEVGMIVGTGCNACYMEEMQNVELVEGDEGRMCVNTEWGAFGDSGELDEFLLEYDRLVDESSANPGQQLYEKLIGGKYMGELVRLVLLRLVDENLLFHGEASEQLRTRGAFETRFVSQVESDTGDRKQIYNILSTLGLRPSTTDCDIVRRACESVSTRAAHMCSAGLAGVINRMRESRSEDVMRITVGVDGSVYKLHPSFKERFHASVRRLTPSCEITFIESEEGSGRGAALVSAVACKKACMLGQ

Row | SMILES | EC50 [nM]
1 | CCOC[C@H](Oc1ncnc2c1cnn2-c1ccccc1Cl)C(=O)Nc1cnc(C)cn1 [Example 105, (2S)-2-[1-(2-chlorophenyl)pyrazolo[4,5-e]pyrimidin-4-yl]oxy-3-ethoxy-N-(5-methylpyrazin-2-yl)propanamide] | 510
2 | Cc1cnc(NC(=O)[C@H](COC(C)C)Oc2ncnc3c2cnn3-c2nccnc2C)cn1 [Example 106, (2S)-3-Isopropoxy-N-(5-methylpyrazin-2-yl)-2-(1-(3-methylpyrazin-2-yl)-1H-pyrazolo[3,4-d]pyrimidin-4-yloxy)propanamide] | 6900
3 | COC[C@H](Oc1ncnc2c1cnn2-c1ccccc1)C(=O)Nc1ccc(C)cn1 [Example 107, (S)-3-Methoxy-N-(5-methylpyridin-2-yl)-2-(1-phenyl-1H-pyrazolo[3,4-d]pyrimidin-4-yloxy)propanamide] | 3600
4 | CC(C)OCC(Oc1ncnc2c1cnn2-c1ccccc1Cl)C(=O)Nc1cnccn1 (stereo not shown) [Example 108, 2-[1-(2-Chlorophenyl)pyrazolo[4,5-e]pyrimidin-4-yl]oxy-3-isopropoxy-N-pyrazin-2-yl-propanamide] | 1300
5 | Cc1nnc(NC(=O)C(COC(C)C)Oc2ncnc3c2cnn3-c2ccccc2Cl)s1 (stereo not shown) [Example 109, 2-[1-(2-chlorophenyl)pyrazolo[4,5-e]pyrimidin-4-yl]oxy-3-isopropoxy-N-(5-methyl-1,3,4-thiadiazol-2-yl)propanamide] | 3200
6 | Cc1cc(NC(=O)C(COC(C)C)Oc2ncnc3c2cnn3-c2ccccc2Cl)no1 (stereo not shown) [Example 110, 2-[1-(2-chlorophenyl)pyrazolo[4,5-e]pyrimidin-4-yl]oxy-3-isopropoxy-N-(5-methylisoxazol-3-yl)propanamide] | 1000
7 | Cc1cnc(NC(=O)C(COC(C)C)Oc2ncnc3c2cnn3-c2ccccc2Cl)s1 (stereo not shown) [Example 111, 2-[1-(2-chlorophenyl)pyrazolo[4,5-e]pyrimidin-4-yl]oxy-3-isopropoxy-N-(5-methylthiazol-2-yl)propanamide] | 330
8 | Cc1cnc(NC(=O)[C@H](COC(C)C)Oc2ncnc3c2cnn3-c2ccccc2Cl)s1 [Example 111a, (2S)-2-[1-(2-chlorophenyl)pyrazolo[4,5-e]pyrimidin-4-yl]oxy-3-isopropoxy-N-(5-methylthiazol-2-yl)propanamide] | 210
9 | CC(C)OCC(Oc1ncnc2c1cnn2-c1ccccc1Cl)C(=O)Nc1ccc(F)cn1 (stereo not shown) [Example 112, 2-[1-(2-chlorophenyl)pyrazolo[4,5-e]pyrimidin-4-yl]oxy-N-(5-fluoro-2-pyridyl)-3-isopropoxy-propanamide] | 260
10 | CC(C)OC[C@H](Oc1ncnc2c1cnn2-c1ccccc1Cl)C(=O)Nc1ccc(F)cn1 [Example 112a, (2S)-2-[1-(2-chlorophenyl)pyrazolo[4,5-e]pyrimidin-4-yl]oxy-N-(5-fluoro-2-pyridyl)-3-isopropoxy-propanamide] | 220
11 | CC(C)OCC(Oc1ncnc2c1cnn2-c1ccccc1Cl)C(=O)Nc1ccc(C#N)cn1 (stereo not shown) [Example 113, 2-[1-(2-chlorophenyl)pyrazolo[4,5-e]pyrimidin-4-yl]oxy-N-(5-cyano-2-pyridyl)-3-isopropoxy-propanamide] | 300
12 | CC(C)OC[C@H](Oc1ncnc2c1cnn2-c1ccccc1Cl)C(=O)Nc1ccc(C#N)cn1 [Example 113a, (2S)-2-[1-(2-chlorophenyl)pyrazolo[4,5-e]pyrimidin-4-yl]oxy-N-(5-cyano-2-pyridyl)-3-isopropoxy-propanamide] | 300
13 | CC(C)OCC(Oc1ncnc2c1cnn2-c1ccccc1Cl)C(=O)Nc1ncns1 (stereo not shown) [Example 114, 2-[1-(2-chlorophenyl)pyrazolo[4,5-e]pyrimidin-4-yl]oxy-3-isopropoxy-N-(1,2,4-thiadiazol-5-yl)propanamide] | 2100
14 | CC(C)OCC(Oc1ncnc2c1cnn2-c1ccccc1Cl)C(=O)Nc1ccc(Cl)cn1 (stereo not shown) [Example 115, 2-[1-(2-chlorophenyl)pyrazolo[4,5-e]pyrimidin-4-yl]oxy-N-(5-chloro-2-pyridyl)-3-isopropoxy-propanamide] | 110
15 | CC(C)OC[C@H](Oc1ncnc2c1cnn2-c1ccccc1Cl)C(=O)Nc1ccc(Cl)cn1 [Example 115a, (2S)-2-[1-(2-chlorophenyl)pyrazolo[4,5-e]pyrimidin-4-yl]oxy-N-(5-chloro-2-pyridyl)-3-isopropoxy-propanamide] | 98
16 | Cc1ccnc(NC(=O)C(COC(C)C)Oc2ncnc3c2cnn3-c2ccccc2Cl)c1 (stereo not shown) [Example 116, 2-[1-(2-chlorophenyl)pyrazolo[4,5-e]pyrimidin-4-yl]oxy-3-isopropoxy-N-(4-methyl-2-pyridyl)propanamide] | 2300
17 | CC(C)OCC(Oc1ncnc2c1cnn2-c1ccccc1Cl)C(=O)Nc1nncs1 (stereo not shown) [Example 117, 2-[1-(2-chlorophenyl)pyrazolo[4,5-e]pyrimidin-4-yl]oxy-3-isopropoxy-N-(1,3,4-thiadiazol-2-yl)propanamide] | 6800
18 | CC(C)OCC(Oc1ncnc2c1cnn2-c1ccccc1Cl)C(=O)Nc1ccccn1 (stereo not shown) [Example 118, 2-[1-(2-chlorophenyl)pyrazolo[4,5-e]pyrimidin-4-yl]oxy-3-isopropoxy-N-(2-pyridyl)propanamide] | 150
19 | CC(C)OC[C@H](Oc1ncnc2c1cnn2-c1ccccc1Cl)C(=O)Nc1ccccn1 [Example 118a, (2S)-2-[1-(2-chlorophenyl)pyrazolo[4,5-e]pyrimidin-4-yl]oxy-3-isopropoxy-N-(2-pyridyl)propanamide] | 120
20 | CC(C)OCC(Oc1ncnc2c1cnn2-c1ccccc1Cl)C(=O)Nc1ccon1 (stereo not shown) [Example 119, 2-[1-(2-chlorophenyl)pyrazolo[4,5-e]pyrimidin-4-yl]oxy-3-isopropoxy-N-isoxazol-3-yl-propanamide] | 1200
21 | CC(C)OCC(Oc1ncnc2c1cnn2-c1ccccc1Cl)C(=O)Nc1ccncn1 (stereo not shown) [Example 120, 2-[1-(2-chlorophenyl)pyrazolo[4,5-e]pyrimidin-4-yl]oxy-3-isopropoxy-N-pyrimidin-4-yl-propanamide] | 540
22 | Cc1ccc(NC(=O)[C@H](COC(C)C)Oc2ncnc3c2cnn3-c2ncccc2C)nc1 [Example 125, (2S)-3-Isopropoxy-N-(5-methylpyridin-2-yl)-2-(1-(3-methylpyridin-2-yl)-1H-pyrazolo[3,4-d]pyrimidin-4-yloxy)propanamide] | 310
23 | Cc1ccc(NC(=O)[C@H](COC(C)C)Oc2ncnc3c2cnn3-c2ncccc2C(F)(F)F)nc1 [Example 126, (2S)-3-Isopropoxy-N-(5-methylpyridin-2-yl)-2-(1-(3-(trifluoromethyl)pyridin-2-yl)-1H-pyrazolo[3,4-d]pyrimidin-4-yloxy)propanamide] | 570
24 | Cc1ccc(NC(=O)[C@H](COC(C)C)Oc2ncnc3c2cnn3-c2ncccc2Cl)nn1 [Example 127, (2S)-2-[1-(3-chloro-2-pyridyl)pyrazolo[4,5-e]pyrimidin-4-yl]oxy-3-isopropoxy-N-(6-methylpyridazin-3-yl)propanamide] | 6000
25 | Cc1cccnc1-n1ncc2c(O[C@@H](COC(C)C)C(=O)Nc3ccc(C#N)cn3)ncnc21 [Example 127a, (2S)—N-(5-cyanopyridin-2-yl)-3-isopropoxy-2-(1-(3-methylpyridin-2-yl)-1H-pyrazolo[3,4-d]pyrimidin-4-yloxy)propanamide] | 1100
